Experimental data reported in patent US20110165198A1, “METHOD FOR REDUCING LIPID ABSORPTION BY AN ANIMAL” (priority 2008, published 2011).

How the values were obtained:
C57bl6j mice [1] = assay: Lipid excretion in feces of mice fed a high fat diet; type: in vivo
Text: (§1) Adult male […] purchased at 8 week of age from Janvier Elevage (Le Genest-St-Isle, France) were individually housed and maintained ad libitum on high fat diet and water for 2 weeks. Seven mice were randomly allocated in 3 groups and fed with a high fat diet (lipids represented 50% of daily energy) during 2 weeks. For one kilogram, the composition of the high fat diet was: 235 g of casein, 201 g of saccharose, 3.5 g L-cystine, 85 g of starch, 116 g of maltodextrine, 60 g of cellulose, 12 g of vitamins mix, 51.5 g de mineral mix and 236 g of lard and 13 g of canola oil (UPAE, Jouy en Josas, France). Then, N-oleoyl-ethanolamide or (Z)-(R)-9-octadecenamide, N-(2-hydroxyethyl, 1-methyl) was added to the diet at the concentration of 100 mg/kg/bw. The mice are kept under treatment during 4 weeks. During the nutritional intervention, daily food intake has been monitored and the mice were weighted 3 times per week. During the last week of the experiment, the mice were kept during 5 days in metabolic cages to collect urine and feces. Lipids were extracted from feces after acidification using chloridric acid using chloroform/methanol (2:1 v/v) method. Total lipids were weighted, results were reported in mg of lipids per g of feces weight. Fat absorption was assessed using the following formula: Fat Absorption (% intake)=100*((Fat intake, g/d-fecal fat excretion, g/d)/fat intake). Example 1 was repeated except that N-oleoyl-ethanolamide as added to the diet at two different concentrations (0.1 or 1 g/kg/bw).

C57bl6j mice [2] = assay: Intestinal lipid (fat) absorption in mice fed a high fat diet; type: in vivo
Text: as §1

[3] = given orally in diet at 100 mg/kg/bw, 4 weeks, feces collected over 5 days in last week, Example 1
[4] = given orally in diet at 100 mg/kg/bw, 4 weeks, Fat Absorption (% intake), Example 1
[5] = given orally in diet at 0.1 g/kg/bw (group C1 of Table 2), Example 2
[6] = given orally in diet at 1 g/kg/bw (group C2 of Table 2), Example 2

SMILES	Lipid Excretion (mg/g of Feces) MV (C57bl6j mice [1]; [3])	Intestinal Lipid Absorption (%) MV (C57bl6j mice [2]; [4]) [%]	Lipid Excretion (mg/g of Feces) MV (C57bl6j mice [1]; [5])	Lipid Excretion (mg/g of Feces) MV (C57bl6j mice [1]; [6])	Intestinal Lipid Absorption (%) MV (C57bl6j mice [2]; [5]) [%]	Intestinal Lipid Absorption (%) MV (C57bl6j mice [2]; [6]) [%]
CCCCCCCC/C=C\CCCCCCCC(=O)N[C@H](C)CO [C2, (Z)-(R)-9-octadecenamide, N-(2-hydroxyethyl,1-methyl)]	65.6 mg/g of Feces	95.05				
CCCCCCCC/C=C\CCCCCCCC(=O)NCCO [C1, N-oleoyl-ethanolamide]	53.7 mg/g of Feces	95.61	55.31 mg/g of Feces	45.56 mg/g of Feces	97.4	97.76
